We go through 20 compounds from US20170334899A1, “AMINO-SUBSTITUTED ISOTHIAZOLES” (Bayer Pharma Aktiengesellschaft, priority 2014, published 2017).

For one test, the target named is T1, CDK2/CycE (Homo sapiens, UniProt P24941).
T1 construct: GST; purchased ProQinase GmbH (Freiburg, Germany); host or cells: insect cells (Sf9)
Kind of test: CDK2/CycE kinase assay (TR-FRET). It counts as biochemical. The settings on record: avg, read-out: CDK2 avg (IC50 [mol/l]). A digest of the protocol:
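Read-out is a TR-FRET 665/620 nm emission ratio from EDTA-stopped reactions detected with anti-pRB(pSer807/pSer811), Eu-labelled anti-mouse IgG and streptavidin-XL665, scaled between no-enzyme and uninhibited wells. Reaction: Sf9-expressed GST-CDK2/GST-CycE, 15 min compound preincubation, 10 μM ATP, 0.75 μM biotin-peptide, 25 min, 22° C., pH 8.0 Tris buffer.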
(In TR-FRET formats the signal depends on donor and acceptor labels being close together.)

Test [1] concerns the target T2, catalytic domain of human Bub1 (amino acids 704-1085) (Homo sapiens, UniProt O43683).
T2 construct: catalytic domain of human Bub1 (amino acids 704-1085); His6 (N); made in house; host or cells: insect cells (Hi5)
Kind of test: Bub1 kinase assay (TR-FRET). The format is biochemical. Conditions: 10 μM ATP, avg, read-out: Bub1 avg (IC50 [mol/l]). A digest of the protocol:
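Readout is the 665/620 nm TR-FRET ratio from anti-phosphoserine antibody, Eu-labelled anti-mouse IgG and streptavidin-XL665, scaled between no-enzyme and uninhibited controls. Reaction: 1 μM biotinylated peptide, 10 μM ATP, 60 min, 22 °C, after 15 min compound preincubation with His6-Bub1 (704-1085, insect-expressed, ~200 ng/ml).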

T2 sequence (O43683 704-1085): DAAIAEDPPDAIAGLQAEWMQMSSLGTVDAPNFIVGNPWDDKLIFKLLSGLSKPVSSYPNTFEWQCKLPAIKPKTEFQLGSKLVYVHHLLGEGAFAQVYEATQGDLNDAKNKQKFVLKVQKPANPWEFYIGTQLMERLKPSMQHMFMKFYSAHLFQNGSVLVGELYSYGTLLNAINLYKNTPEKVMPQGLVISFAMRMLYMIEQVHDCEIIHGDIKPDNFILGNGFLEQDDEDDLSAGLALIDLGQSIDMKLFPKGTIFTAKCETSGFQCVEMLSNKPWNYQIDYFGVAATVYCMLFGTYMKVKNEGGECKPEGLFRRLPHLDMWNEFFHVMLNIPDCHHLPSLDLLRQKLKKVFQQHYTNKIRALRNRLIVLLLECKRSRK

Take `CC(=O)Nc1cc(NC(=O)c2c(C)nsc2Nc2cnccn2)ccc1F` [Example 205, N-(3-acetamido-4-fluorophenyl)-3-methyl-5-(pyrazin-2-ylamino)-1,2-thiazole-4-carboxamide]: the IC50 (on CDK2/CycE; in test [1]) was over 20 µM each time.

With `Cc1nsc(Nc2cncc(C(F)(F)F)n2)c1C(=O)Nc1ccc(OCCCNC(=O)OC(C)(C)C)nc1` [Example 190, tert-butyl {3-[(5-{[(3-methyl-5-{[6-(trifluoromethyl)pyrazin-2-yl]amino}-1,2-thiazoL-4-yl)carbonyl]amino}pyridin-2-yl)oxy]propyl}carbamate], the IC50 (on CDK2/CycE; in test [1]) was over 20 µM throughout.

On to `Cc1nsc(Nc2cnc(C(F)(F)F)cn2)c1C(=O)Nc1ccc(OC2CCN(C)CC2)nc1` [Example 220, 3-methyl-N-{6-[(1-methylpiperidin-4-yl)oxy]pyridin-3-yl}-5-{[5-(trifluoromethyl)pyrazin-2-yl]amino}-1,2-thiazole-4-carboxamide], for which the IC50 (at CDK2/CycE; in test [1]) was over 20 µM in each case.

As for `Cc1nsc(Nc2cncc(C(F)(F)F)n2)c1C(=O)Nc1ccc(OC2CCNCC2)nc1` [Example 13, 3-Methyl-N-[6-(piperidin-4-yloxy)pyridin-3-yl]-5-{[6-(trifluoromethyl)pyrazin-2-yl]-amino}-1,2-thiazole-4-carboxamide], the IC50 (at CDK2/CycE; in test [1]) was at least 20 µM in each case.

For the compound `CNS(=O)(=O)c1ccc(NC(=O)c2c(C)nsc2Nc2cc(C#N)ccn2)cc1` [Example 210, 5-[(4-cyanopyridin-2-yl)amino]-3-methyl-N-[4-(methylsulfamoyl)phenyl]-1,2-thiazole-4-carboxamide], the IC50 (at CDK2/CycE; in test [1]) was over 20 µM throughout.

`Cc1nsc(Nc2cc(C#N)ccn2)c1C(=O)Nc1ccc(NC2CCCNC2)nc1` (stereo not shown) [Example 242, 5-[(4-cyanopyridin-2-yl)amino]-3-methyl-N-[6-(piperidin-3-ylamino)pyridin-3-yl]-1,2-thiazole-4-carboxamide]: the IC50 (on CDK2/CycE; in test [1]) was over 20 µM each time.

Turning to `Cc1nsc(Nc2cncc(C(F)(F)F)n2)c1C(=O)Nc1ccc(OC2CCN(C)CC2)nc1` [Example 219, 3-methyl-N-{6-[(1-methylpiperidin-4-yl)oxy]pyridin-3-yl}-5-{[6-(trifluoromethyl)pyrazin-2-yl]amino}-1,2-thiazole-4-carboxamide], the IC50 (on CDK2/CycE; in test [1]) was over 20 µM each time.

For `CC(=O)Nc1cc(NC(=O)c2c(C)nsc2Nc2cnc(C(F)(F)F)cn2)ccc1F` [Example 206, N-(3-acetamido-4-fluorophenyl)-3-methyl-5-{[5-(trifluoromethyl)pyrazin-2-yl]amino}-1,2-thiazole-4-carboxamide], the IC50 is over 20 µM on CDK2/CycE and 13 µM in test [1].

For the compound `Cc1nsc(Nc2cc(C#N)ccn2)c1C(=O)Nc1cccc(NC(=O)C(C)(C)C)c1` [Example 183, 5-[(4-cyanopyridin-2-yl)amino]-N-{3-[(2,2-dimethylpropanoyl)amino]phenyl}-3-methyl-1,2-thiazole-4-carboxamide], the IC50 (on CDK2/CycE; in test [1]) was over 20 µM throughout.

As for `Cc1nsc(Nc2cnc(C(F)(F)F)cn2)c1C(=O)Nc1ccc(OCC2CCCN(C(=O)OC(C)(C)C)C2)nc1` (stereo not shown) [Example 228, tert-butyl 3-{[(5-{[(3-methyl-5-{[5-(trifluoromethyl)pyrazin-2-yl]amino}-1,2-thiazol-4-yl)carbonyl]amino}pyridin-2-yl)oxy]methyl}piperidine-1-carboxylate], the IC50 (on CDK2/CycE; in test [1]) was over 20 µM in each case.

Turning to `COC(=O)CCc1cccc(NC(=O)c2c(C)nsc2Nc2ccc(C#N)cn2)c1` [Example 176, methyl 3-{3-[({5-[(5-cyanopyridin-2-yl)amino]-3-methyl-1,2-thiazol-4-yl}carbonyl)amino]phenyl}propanoate], the IC50 (at CDK2/CycE; in test [1]) was over 20 µM each time.

With `Cc1nsc(Nc2cnccn2)c1C(=O)Nc1ccc(C(=O)OC(C)(C)C)cc1` [Example 184, tert-butyl 4-({[3-methyl-5-(pyrazin-2-ylamino)-1,2-thiazol-4-yl]carbonyl}amino)benzoate], the IC50 (on CDK2/CycE; in test [1]) was over 20 µM each time.

With `Cc1nsc(Nc2cnc(C(F)(F)F)cn2)c1C(=O)Nc1ccc(OCC2CCN(C(=O)OC(C)(C)C)CC2)nc1` [Example 227, tert-butyl 4-{[(5-{[(3-methyl-5-{[5-(trifluoromethyl)pyrazin-2-yl]amino}-1,2-thiazol-4-yl)carbonyl]amino}pyridin-2-yl)oxy]methyl}piperidine-1-carboxylate], the IC50 (at CDK2/CycE; in test [1]) was over 20 µM throughout.

Take `Cc1nsc(Nc2cncc(C(F)(F)F)n2)c1C(=O)Nc1ccc(C(=O)OC(C)(C)C)cc1` [Example 193, tert-butyl tert-butyl 4-{[(3-methyl-5-{[6-(trifluoromethyl)pyrazin-2-yl]amino}-1,2-thiazol-4-yl)carbonyl]amino}benzoate]: the values for the IC50 (at CDK2/CycE; in test [1]) were 12 µM and over 20 µM, respectively.

In the case of `Cc1nsc(Nc2cncc(C(F)(F)F)n2)c1C(=O)Nc1ccc(OCCNC(=O)OC(C)(C)C)nc1` [Example 191, tert-butyl {2-[(5-{[(3-methyl-5-{[6-(trifluoromethyl)pyrazin-2-yl]amino}-1,2-thiazol-4-yl)carbonyl]amino}pyridin-2-yl)oxy]ethyl}carbamate], the IC50 on CDK2/CycE is 18 µM; in test [1] it was over 20 µM.

For the compound `Cc1nsc(Nc2cnc3ccccc3n2)c1C(=O)Nc1ccc(NCCC(=O)OC(C)(C)C)nc1` [Example 236, tert-butyl N-[5-({[3-methyl-5-(quinoxalin-2-ylamino)-1,2-thiazol-4-yl]carbonyl}amino)pyridin-2-yl]-beta-alaninate], the IC50 (on CDK2/CycE; in test [1]) was over 20 µM throughout.

Turning to `Cc1nsc(Nc2ccc(C#N)cn2)c1C(=O)Nc1cccc(NC(=O)OC(C)(C)C)c1` [Example 179, tert-butyl {3-[({5-[(5-cyanopyridin-2-yl)amino]-3-methyl-1,2-thiazol-4-yl}carbonyl)amino]phenyl}carbamate], the IC50 (on CDK2/CycE; in test [1]) was over 20 µM throughout.

Take `Cc1nsc(Nc2cc(C#N)ccn2)c1C(=O)Nc1cccc(C(=O)NC2CC2)c1` [Example 175, 5-[(4-cyanopyridin-2-yl)amino]-N-[3-(cyclopropylcarbamoyl)phenyl]-3-methyl-1,2-thiazole-4-carboxamide]: the IC50 on CDK2/CycE is over 20 µM.

Regarding `Cc1nsc(Nc2cnc(C(F)(F)F)cn2)c1C(=O)Nc1cccc(S(C)(=O)=O)c1` [Example 195, 3-methyl-N-[3-(methylsulfonyl)phenyl]-5-{[5-(trifluoromethyl)pyrazin-2-yl]amino}-1,2-thiazole-4-carboxamide], at CDK2/CycE, the IC50 was over 20 µM.

As for `Cc1nsc(Nc2cncc(C(F)(F)F)n2)c1C(=O)Nc1ccc(C(=O)NCCN2CCCC(F)(F)C2)cc1` [Example 214, N-(4-{[2-(3,3-difluoropiperidin-1-yl)ethyl]carbamoyl}phenyl)-3-methyl-5-{[6-(trifluoromethyl)pyrazin-2-yl]amino}-1,2-thiazole-4-carboxamide], the IC50 in test [1] was over 20 µM.
